Assay results reported in US11504356B2, “Treatment for inflammatory disease” (REPOS PHARMA AB, priority 2017, dated 2022).

Assays:
[1] = tested on: Phospho-ERK 1/2 (p-ERK) in monocytoid THP-1 cells; assay: p-ERK level in monocytoid THP-1 cells (Bioplex Pro / Luminex MAGPIX); format: cell-based; settings: for effect on p-ERK levels: 10 μM, 1 hr exposure, monocytoid THP-1 cells, vs DMSO control
Procedure: Monocytoid THP-1 cells were obtained from ATCC (Manassas, Va.) and were cultured in RPMI-1640 medium, supplemented with 10% heat-inactivated fetal bovine serum (HIFBS), 2 mM L-glutamine, 100 U/100 […] penicillin/streptomycin and 0.05 mM 2-mercaptoethanol (all from Sigma, St Louis, Mo.). All cell lines were cultured at 37° C. in a humidified atmosphere containing 5% CO2. Phospho-ERK 1/2 (p-ERK) activity was measured using the Bioplex Pro Cell Signalling assay kit for ERK 1/2 (Biorad) and the Luminex MAGPIX® system according to the manufacturers' instructions. Measurements of p-ERK in CD4+ cells followed the protocol described by Gorelik et al. (J. Immunol. 2007; 179(8):5553-5563). Phosphorylation of ERK by upstream MAPK proteins such as MEK results in activation of ERK. Measurement of p-ERK levels in cells is used as an indicator of ERK signalling. The level of p-ERK in monocytoid THP-1 cells was measured using the Bioplex Pro Cell Signalling assay kit for ERK 1/2 (Biorad) and the Luminex MAGPIX® system. The assay is based on binding of the target of interest via antibodies to magnetic beads. The target is detected using biotinylated antibodies with a fluorescent reporter. The assay was performed according to the manufacturer's instructions. The levels of p-ERK in monocytoid THP-1 cells and PBMC cells were measured using the Bioplex Pro Cell Signalling assay kit for ERK 1/2 (Biorad) and the Luminex MAGPIX® system. The assay is based on binding of the target of interest via antibodies to magnetic beads. The target is detected using biotinylated antibodies with a fluorescent reporter. The assay was performed according to the manufacturer instructions. The levels of the phosphoprotein phospho-ERK (p-ERK) in cell lysates after 1 h exposure to mebendazole (10 μM)), fenbendazole (10 μM) or control (DMSO) in monocytoid THP-1 cells and PMA differentiated THP-1 macrophages was measured using the Luminex MAGPIX® system and the commercially available kit (Biorad, Hercules, Calif.) described above. The assay is based on binding of the target of interest via antibodies to magnetic beads. The target is detected using biotinylated antibodies with a fluorescent reporter. The assays were performed according to the manufacturer's instructions. Briefly, the protein concentrations in the cell lysates were first determined using a Micro-BCA method (ThermoFischer Scientific, Waltham, Mass., USA) to ensure equal amounts of samples in the assay and then measurements were performed by incubating the cell lysate samples with beads, then with detection antibody, and finally with streptavidin-PE. The fluorescence was measured using the MAGPIX instrument (BioRad) and the concentration levels were determined by fitting to a standard curve.

[2] = tested on: p-ERK in PMA differentiated THP-1 macrophages; assay: p-ERK level in PMA differentiated THP-1 macrophages; format: cell-based; settings: 10 μM, 1 hr exposure, vs DMSO control
Procedure: Phospho-ERK 1/2 (p-ERK) activity was measured using the Bioplex Pro Cell Signalling assay kit for ERK 1/2 (Biorad) and the Luminex MAGPIX® system according to the manufacturers' instructions. Measurements of p-ERK in CD4+ cells followed the protocol described by Gorelik et al. (J. Immunol. 2007; 179(8):5553-5563). The levels of the phosphoprotein phospho-ERK (p-ERK) in cell lysates after 1 h exposure to mebendazole (10 μM)), fenbendazole (10 μM) or control (DMSO) in monocytoid THP-1 cells and PMA differentiated THP-1 macrophages was measured using the Luminex MAGPIX® system and the commercially available kit (Biorad, Hercules, Calif.) described above. The assay is based on binding of the target of interest via antibodies to magnetic beads. The target is detected using biotinylated antibodies with a fluorescent reporter. The assays were performed according to the manufacturer's instructions. Briefly, the protein concentrations in the cell lysates were first determined using a Micro-BCA method (ThermoFischer Scientific, Waltham, Mass., USA) to ensure equal amounts of samples in the assay and then measurements were performed by incubating the cell lysate samples with beads, then with detection antibody, and finally with streptavidin-PE. The fluorescence was measured using the MAGPIX instrument (BioRad) and the concentration levels were determined by fitting to a standard curve.

[3] = long-term high-dose (40 mg/kg/day); cited from earlier work
[4] = low-dose (Vermox), 6276 subjects, 39 clinical trials; cited from earlier work
[5] = tested on: p-ERK in CD4+ T-cells from SLE patient; assay: p-ERK in CD4+ T-cells isolated from PBMCs from an SLE patient; format: cell-based, human; settings: 10 μM and 30 μM
Procedure: (§1) Peripheral blood mononuclear cells (PBMCs) from healthy donors were isolated by 1.077 g/ml Ficoll-Paque centrifugation and cryopreserved as described by Larsson et al. (Int J Cancer 1992; 50: 177-185). Cell viability was determined by trypan blue exclusion test. SLE PBMCs were obtained Astarte Biologics, WA, USA (cat no 1035, lot 3429DE16) in cryopreserved vials (10 million cells). CD4+ cells were subsequently isolated with an autoMACS® instrument and a CD4+ isolation kit from Miltenyi Biotec according to the manufacturer's description and the method described by Gorelik et al. (J. Immunol. 2007; 179(8):5553-5563). Phospho-ERK 1/2 (p-ERK) activity was measured using the Bioplex Pro Cell Signalling assay kit for ERK 1/2 (Biorad) and the Luminex MAGPIX® system according to the manufacturers' instructions. Measurements of p-ERK in CD4+ cells followed the protocol described by Gorelik et al. (J. Immunol. 2007; 179(8):5553-5563). CD4+ T-Cells were isolated from PBMCs obtained from the venous blood of healthy donors and patients with SLE using the method described in Gorelik et al. (J. Immunol. 2007; 179(8):5553-5563). The level of p-ERK in the isolated CD4+ T-Cells was measured using the Bioplex Pro Cell Signalling assay kit for ERK 1/2 (Biorad) and the Luminex MAGPIX® system.

[6] = Treatment of sarcoidosis patient, PET/CT examination; format: in vivo, human; settings: one patient, 200 mg daily for six days then 400 mg daily (2×200 mg), after six weeks
Procedure: A daily dose of 200 mg (given as 2×100 mg) of mebendazole was administered for six consecutive days.

[7] = tested on: anti-(double stranded)-DNA antibodies in serum of NZBNZWF1 mice; assay: In vivo efficacy study in SLE model, NZBNZWF1 mice, serum anti-dsDNA antibodies
Procedure: 40 female NZBNZWF1 mice (Envigo Europe) were fed and watered ad libitum and acclimatised for approximately 1 week before initiation of the experiment. Mice were 14 weeks old at the initiation of the experiment, and 16 weeks are the start of treatment. The mice were divided into 4 treatment groups of 10 mice each at the initiation of the experiment: • 1. Vehicle control: treatment with vehicle only • 2. Positive control: treatment with methotrexate (15 mg/kg) • 3. […] The positive control treatment of 15 mg/kg methotrexate was administered intraperitoneally 3 times per week for 8 weeks (weeks 16-24 of age of the mice). […] Serum was collected from all mice at initiation of the experiment (mice age 14 weeks), at start of treatment (mice age 16 weeks), and every second week during treatment (mice age 18, 20, 22, and 24 weeks), after treatment (mice age 26 and 28 weeks) and at termination (mice age 30 weeks). The serum samples were analysed for levels of antibodies directed against double stranded DNA (dsDNA) (anti-ds-DNA antibodies).

[8] = tested on: p-ERK in PBMC cells; assay: p-ERK level in peripheral blood mononuclear cells (PBMC); format: cell-based; settings: PBMCs, FIG. 3b
Procedure: as §1, with “179(8):5553-5563).” for “179(8):5553-5563). CD4+ T-Cells were isolated from PBMCs obtained from the venous blood of healthy donors and patients with SLE using the method described in Gorelik et al. (J. Immunol. 2007; 179(8):5553-5563).”, “levels” for “level”, “monocytoid THP-1 cells and PBMC cells were” for “the isolated CD4+ T-Cells was”, “system. The assay is based on binding of the target of interest via antibodies to magnetic beads. The target is detected using biotinylated antibodies with a fluorescent reporter. The assay was performed according to the manufacturer instructions.” for “system.”

[9] = Serum mebendazole concentration in treated patient; format: in vivo; settings: human, 400 mg daily (2×200 mg), daily dose 400 mg (2×200 mg), after six weeks
Procedure: The serum mebendazole concentration at this time point was 71 ng/ml.

Structure (SMILES)	effect on p-ERK levels [1]	effect on p-ERK levels [2]	effect on p-ERK levels in THP-1 cells ([1]; FIG. 2, comparison with other tubulin-active agents)	dose dependence of p-ERK level ([1]; THP-1 cells not treated with U0126)	p-ERK fluorescence reading ([1]; THP-1 cells not treated with U0126, 30 μM mebendazole)	p-ERK fluorescence reading ([1]; THP-1 cells not treated with U0126, 1 μm mebendazole)	tolerability [3]	subjects with related adverse events [4]	p-ERK activity compared with CD4+ T-cells from a healthy donor [5]	PET scan outcome: FDG-signal and size of hilar and mediastinal nodes [6]	concentration of anti-dsDNA antibodies in serum vs vehicle control group or methotrexate positive control group ([7]; 25 mg/kg or 50 mg/kg p.o., 5 days per week, weeks 16-24)	concentration of anti-dsDNA antibodies in serum, higher dose vs lower dose ([7]; 50 mg/kg vs 25 mg/kg p.o.)	dose dependence of p-ERK level [8]	concentration at 6 weeks [9] [ng/mL]
COC(=O)Nc1nc2ccc(Sc3ccccc3)cc2[nH]1 [Fenbendazole, fenbendazole]	did not increase	did not increase												
COC(=O)Nc1nc2ccc(C(=O)c3ccccc3)cc2[nH]1 [mebendazole, Mebendazole]	significantly increased	significantly increased	significantly increased	increased with an increasing dose	approximately 1200 arb units	approximately 500 arb units	generally well tolerated	less than 1%	restored the activity of p-ERK to at least the same level	sarcoidosis in remission	lower concentrations	lower concentration	increased with an increasing dose	71
